Literature values, collected in US12201111B2, “Glyphosate formulations containing amidoalkylamine surfactants” (Monsanto Technology LLC, priority 2016, dated 2025).

Conditions: glyphosate in its acid form; 25° C.

O=C(O)CNCP(=O)(O)O [glyphosate, N-phosphonomethylglycine]
solubility in water: 1.16 % by weight
